Tested on: patients after acute myocardial infarction
Experiment: TCM symptom score, total and single (chest pain, chest tightness, short breath, fatigue, palpitation, spontaneous perspiration, pale complexion), same clinical trial
Format: in vivo, human
Details: for chest pain score 0, number of patients / chest pain score 0, percent of patients / chest pain score 3, number of patients / chest pain score 3, percent of patients / chest pain score 6, number of patients / chest pain score 6, percent of patients / chest pain score 9, number of patients / chest pain score 9, percent of patients / chest tightness score 0, number of patients / chest tightness score 0, percent of patients / chest tightness score 3, number of patients / chest tightness score 3, percent of patients / chest tightness score 6, number of patients / chest tightness score 6, percent of patients / chest tightness score 9, number of patients / chest tightness score 9, percent of patients: 1 month after treatment
Description: 3508 patients who were in accordance with the diagnostic standards of AMI for 28 days to 2 years and differentiated as Qi deficiency and blood stagnation syndrome by TCM were studied. 0.5 g Chinese medicine composition prepared by the method of EXAMPLE 1 (Coded as QSYQ) was administrated half an hour after meal, 3 times per day.
They included the overall survival time, angina pectoris score, TCM symptom score and life quality score, where angina pectoris score, TCM symptom score and life quality score were evaluated at randomization, in 1st, 3rd, 6th, 9th, 12th month after treatment and 18th month after follow-up.
The analysis method referred to the angina pectoris score.

[1] = 1 month after treatment-baseline, FAS
[2] = 1 month after treatment-baseline, PP
[3] = 3 months after treatment-baseline, FAS
[4] = 3 months after treatment-baseline, PP

## CC(=O)Oc1ccccc1C(=O)O [Control group, aspirine]
[1]
  change of chest pain score 0, number of patients: 1344
  change of chest pain score 0, percent of patients: (78.64%)
  change of chest pain score 3, number of patients: 226
  change of chest pain score 3, percent of patients: (13.22%)
  change of chest pain score 6, number of patients: 60
  change of chest pain score 6, percent of patients: (3.51%)
  change of chest pain score 9, number of patients: 4
  change of chest pain score 9, percent of patients: (0.23%)
  change of chest pain score −3, number of patients: 59
  change of chest pain score −3, percent of patients: (3.45%)
  change of chest pain score −6, number of patients: 16
  change of chest pain score −6, percent of patients: (0.94%)
  change of chest pain score −9, number of patients: 0
  change of chest pain score −9, percent of patients: (0.00%)
  change of chest tightness score 0, number of patients: 1302
  change of chest tightness score 0, percent of patients: (76.18%)
  change of chest tightness score 3, number of patients: 298
  change of chest tightness score 3, percent of patients: (17.44%)
  change of chest tightness score 6, number of patients: 21
  change of chest tightness score 6, percent of patients: (1.23%)
  change of chest tightness score 9, number of patients: 5
  change of chest tightness score 9, percent of patients: (0.29%)
  change of chest tightness score −3, number of patients: 76
  change of chest tightness score −3, percent of patients: (4.45%)
  change of chest tightness score −6, number of patients: 7
  change of chest tightness score −6, percent of patients: (0.41%)
[2]
  change of chest pain score 0, number of patients: 1146
  change of chest pain score 0, percent of patients: (78.49%)
  change of chest pain score 3, number of patients: 197
  change of chest pain score 3, percent of patients: (13.49%)
  change of chest pain score 6, number of patients: 52
  change of chest pain score 6, percent of patients: (3.56%)
  change of chest pain score 9, number of patients: 3
  change of chest pain score 9, percent of patients: (0.21%)
  change of chest pain score −3, number of patients: 50
  change of chest pain score −3, percent of patients: (3.42%)
  change of chest pain score −6, number of patients: 12
  change of chest pain score −6, percent of patients: (0.82%)
  change of chest pain score −9, number of patients: 0
  change of chest pain score −9, percent of patients: (0.00%)
  change of chest tightness score 0, number of patients: 1110
  change of chest tightness score 0, percent of patients: (76.03%)
  change of chest tightness score 3, number of patients: 259
  change of chest tightness score 3, percent of patients: (17.74%)
  change of chest tightness score 6, number of patients: 19
  change of chest tightness score 6, percent of patients: (1.30%)
  change of chest tightness score 9, number of patients: 4
  change of chest tightness score 9, percent of patients: (0.27%)
  change of chest tightness score −3, number of patients: 62
  change of chest tightness score −3, percent of patients: (4.25%)
  change of chest tightness score −6, number of patients: 6
  change of chest tightness score −6, percent of patients: (0.41%)
FAS
  chest pain score 0, number of patients: 608
  chest pain score 0, percent of patients: (35.41%)
  chest pain score 3, number of patients: 635
  chest pain score 3, percent of patients: (36.98%)
  chest pain score 6, number of patients: 461
  chest pain score 6, percent of patients: (26.85%)
  chest pain score 9, number of patients: 13
  chest pain score 9, percent of patients: (0.76%)
  chest tightness score 0, number of patients: 608
  chest tightness score 0, percent of patients: (35.41%)
  chest tightness score 3, number of patients: 635
  chest tightness score 3, percent of patients: (36.98%)
  chest tightness score 6, number of patients: 461
  chest tightness score 6, percent of patients: (26.85%)
  chest tightness score 9, number of patients: 13
  chest tightness score 9, percent of patients: (0.76%)
PP
  chest pain score 0, number of patients: 515
  chest pain score 0, percent of patients: (35.13%)
  chest pain score 3, number of patients: 537
  chest pain score 3, percent of patients: (36.63%)
  chest pain score 6, number of patients: 406
  chest pain score 6, percent of patients: (27.69%)
  chest pain score 9, number of patients: 8
  chest pain score 9, percent of patients: (0.55%)
  chest tightness score 0, number of patients: 515
  chest tightness score 0, percent of patients: (35.13%)
  chest tightness score 3, number of patients: 537
  chest tightness score 3, percent of patients: (36.63%)
  chest tightness score 6, number of patients: 406
  chest tightness score 6, percent of patients: (27.69%)
  chest tightness score 9, number of patients: 8
  chest tightness score 9, percent of patients: (0.55%)
[3]
  change of chest pain score 0, number of patients: 1203
  change of chest pain score 0, percent of patients: (70.39%)
  change of chest pain score 3, number of patients: 325
  change of chest pain score 3, percent of patients: (19.02%)
  change of chest pain score 6, number of patients: 76
  change of chest pain score 6, percent of patients: (4.45%)
  change of chest pain score 9, number of patients: 6
  change of chest pain score 9, percent of patients: (0.35%)
  change of chest pain score −3, number of patients: 79
  change of chest pain score −3, percent of patients: (4.62%)
  change of chest pain score −6, number of patients: 20
  change of chest pain score −6, percent of patients: (1.17%)
  change of chest pain score −9, number of patients: 0
  change of chest pain score −9, percent of patients: (0.00%)
  change of chest tightness score 0, number of patients: 1190
  change of chest tightness score 0, percent of patients: (69.63%)
  change of chest tightness score 3, number of patients: 383
  change of chest tightness score 3, percent of patients: (22.41%)
  change of chest tightness score 6, number of patients: 37
  change of chest tightness score 6, percent of patients: (2.17%)
  change of chest tightness score 9, number of patients: 5
  change of chest tightness score 9, percent of patients: (0.29%)
  change of chest tightness score −3, number of patients: 85
  change of chest tightness score −3, percent of patients: (4.97%)
  change of chest tightness score −6, number of patients: 8
  change of chest tightness score −6, percent of patients: (0.47%)
  change of chest tightness score −9, number of patients: 1
  change of chest tightness score −9, percent of patients: (0.06%)
[4]
  change of chest pain score 0, number of patients: 1019
  change of chest pain score 0, percent of patients: (70.62%)
  change of chest pain score 3, number of patients: 279
  change of chest pain score 3, percent of patients: (19.33%)
  change of chest pain score 6, number of patients: 63
  change of chest pain score 6, percent of patients: (4.37%)
  change of chest pain score 9, number of patients: 4
  change of chest pain score 9, percent of patients: (0.28%)
  change of chest pain score −3, number of patients: 64
  change of chest pain score −3, percent of patients: (4.44%)
  change of chest pain score −6, number of patients: 14
